According to US11286228B2, “Stilbene derivative and method for preparing same” (Ozchela Inc., priority 2016, dated 2022):
pEC50, pIC50: −log10 of the molar value. Like-named read-outs stand apart in the source and are kept apart here.

Legend:
[1] = tested on: mitochondria obtained from hepatocytes; assay: Inhibitory activity on calcium-induced mitochondrial swelling (absorbance 520 nm)
Method in brief: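 Mitochondria isolated from hepatocytes by Dounce disruption, 700×g clearing and 12,000×g pelleting. Swelling induced with calcium and followed as absorbance at 520 nm; activity expressed as IC50.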

[2] = tested on: hepatitis C virus; assay: Antiviral activity in HCV replicon cells (Renilla luciferase); assay type: cell-based
Method in brief: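 Replicon cells stably carrying the HCV genome, pre-cultured 24 h at 37 °C, treated with compound for 72 h, then lysed on ice. Renilla luciferase luminescence used as a measure of HCV genome level, expressed relative to DMSO-treated cells, from which EC50 was derived.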

[3] = molecular target: cyclophilin; assay: Cis-trans isomerase inhibitory activity (chymotrypsin-coupled Suc-AAPF-pNA cleavage, absorbance 390 nm); assay type: biochemical
Method in brief: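 Cyclophilin isomerase activity coupled to chymotrypsin cleavage of Suc-AAPF-pNA: chymotrypsin cuts only the trans peptide, so isomerase-driven cis-to-trans conversion increases cleavage within a fixed period. Released product read by absorbance at 390 nm with compound present alongside cyclophilin.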

[4] = Hepatocyte, calcium-induced swelling of extracted mitochondria, read-out: Test Example 4: inhibiting mitochondrial swelling (IC50)
[5] = Hepatitis C virus, HCV replicon cells, 72 hr, Renilla luciferase, relative to DMSO, read-out: Test Example 3: antiviral activity (EC50)
[6] = cyclophilin, chymotrypsin, Suc-AAPF-pNA, read-out: Test Example 1: cis-trans isomerase inhibitory activity (IC50)
[7] = Hepatitis C virus, 72 h, read-out: Test Example 3: antiviral activity (EC50)
[8] = Hepatocyte, read-out: Test Example 4: activity on inhibiting mitochondrial swelling (IC50) group
[9] = Hepatitis C virus, HCV replicon cells, read-out: Test Example 3: antiviral activity (EC50) group
[10] = read-out: Test Example 1: cis-trans isomerase inhibitory activity (IC50) group

Row | Structure (SMILES) | pIC50 [1, 4] | pEC50 [2, 5] | pIC50 [3, 6] | other results
1 | CC(C)(C)Cc1ccc(C(N)=Cc2ccccc2C(=O)OCc2ccccc2)cc1 [Compound 106] | 4.30 to 5.30 | 5.30 to 6.30 | 6.70 to 7.70 | 
2 | CC(C)(C)Cc1ccc(C(N)=Cc2ccccc2C(=O)OC2CCCCC2)cc1 [Compound 107] | 4.30 to 5.30 | 5.30 to 6.30 | 6.70 to 7.70 | 
3 | CCCCOC(=O)c1ccccc1C=C(N)c1ccc(CC(C)CC)cc1 (stereo not drawn) [Compound 108] | 4.30 to 5.30 | 5.30 to 6.30 | 6.70 to 7.70 | 
4 | CCCCOC(=O)c1ccccc1C=C(N)c1ccc(CC2CCCC2)cc1 [Compound 109] | 4.30 to 5.30 | 5.30 to 6.30 | 6.70 to 7.70 | 
5 | CCCCOC(=O)c1ccccc1C=C(N)c1ccc(CC2CCCCC2)cc1 [Compound 110] | 4.30 to 5.30 | 5.30 to 6.30 | 6.70 to 7.70 | 
6 | CCCCOC(=O)c1ccccc1C=C(N)c1ccc(Cc2ccccc2)cc1 [Compound 111] | 4.30 to 5.30 |  | 6.70 to 7.70 | pEC50 [2, 7]: 5.30 to 6.30
7 | CCCCOC(=O)c1ccccc1C=C(F)c1ccc(CC(C)(C)C)cc1 [Compound 112] | > 5.30 | > 6.30 | ≥ 7.70 | 
8 | CCCCOC(=O)c1c(C)cccc1C=C(Cl)c1ccc(CC(C)(C)C)cc1 [Compound 113] | > 5.30 | > 6.30 | ≥ 7.70 | 
9 | CCCCOC(=O)c1ccccc1C=C(Br)c1ccc(CC(C)(C)C)cc1C [Compound 114] | > 5.30 | > 6.30 | ≥ 7.70 | 
10 | CCCCOC(=O)c1cc(C)ccc1C=C(I)c1ccc(CC(C)(C)C)cc1 [Compound 115] | > 5.30 | > 6.30 | ≥ 7.70 | 
11 | CCCCOC(=O)c1c(C=C(F)c2ccc(CC(C)(C)C)cc2)ccc(C)c1C [Compound 116] | > 5.30 | > 6.30 | ≥ 7.70 | 
12 | CCCCCOC(=O)c1ccccc1C=C(Cl)c1ccc(CC(C)(C)C)cc1 [Compound 117] | > 5.30 | > 6.30 | ≥ 7.70 | 
13 | CC(C)OC(=O)c1ccccc1C=C(Br)c1ccc(CC(C)(C)C)cc1 [Compound 118] | > 5.30 | > 6.30 | ≥ 7.70 | 
14 | CC(C)(C)Cc1ccc(C(I)=Cc2ccccc2C(=O)OCC2CCCCC2)cc1 [Compound 119] | > 5.30 | > 6.30 | ≥ 7.70 | 
15 | CC(C)(C)Cc1ccc(C(F)=Cc2ccccc2C(=O)OCc2ccccc2)cc1 [Compound 120] | > 5.30 | > 6.30 | ≥ 7.70 | 
16 | CC(C)(C)Cc1ccc(C(Cl)=Cc2ccccc2C(=O)OC2CCCCC2)cc1 [Compound 121] | > 5.30 | > 6.30 | ≥ 7.70 | 
17 | CCCCOC(=O)c1ccccc1C=C(Br)c1ccc(CC(C)CC)cc1 (stereo not drawn) [Compound 122] | 4.30 to 5.30 | 5.30 to 6.30 | 6.70 to 7.70 | 
18 | CCCCOC(=O)c1ccccc1C=C(I)c1ccc(Cc2ccccc2)cc1 [Compound 123] | 4.30 to 5.30 |  | 6.70 to 7.70 | pEC50 [2, 7]: 5.30 to 6.30
19 | COC(=O)c1ccccc1C=Cc1ccc(CC(C)(C)C)cc1 [Compound 124] | > 5.30 | > 6.30 | ≥ 7.70 | 
20 | CCC(C)Cc1ccc(C=Cc2ccccc2C(=O)OC)cc1 (stereo not drawn) [Compound 125] | 4.30 to 5.30 | 5.30 to 6.30 | 6.70 to 7.70 | 
21 | COC(=O)c1ccccc1C=Cc1ccc(CC2CCCC2)cc1 [Compound 126] | 4.30 to 5.30 | 5.30 to 6.30 | 6.70 to 7.70 | 
22 | COC(=O)c1ccccc1C=Cc1ccc(CC2CCCCC2)cc1 [Compound 127] | 4.30 to 5.30 | 5.30 to 6.30 | 6.70 to 7.70 | 
23 | COC(=O)c1ccccc1C=Cc1ccc(Cc2ccccc2)cc1 [Compound 128] | 4.30 to 5.30 |  | 6.70 to 7.70 | pEC50 [2, 7]: 5.30 to 6.30

Row | Structure (SMILES) | pIC50 [1, 4] | pEC50 [2, 5] | pIC50 [3, 6] | other results
24 | COC(=O)c1ccccc1C=Cc1ccc(CC(C)C)cc1 [Compound 129] | 4.30 to 5.30 | 5.30 to 6.30 | 6.70 to 7.70 | 
25 | CCCCCc1ccc(C=Cc2ccccc2C(=O)OC)cc1 [Compound 130] | > 5.30 | > 6.30 | ≥ 7.70 | 
26 | CCCCOC(=O)c1ccccc1C=Cc1ccc(CC(C)C)cc1 [Compound 131] | > 5.30 | > 6.30 | ≥ 7.70 | 
27 | CCCCCc1ccc(C=Cc2ccccc2C(=O)OCCCC)cc1 [Compound 132] | > 5.30 | > 6.30 | ≥ 7.70 | 
28 | CC(C)(C)Cc1ccc(C=Cc2ccccc2C(=O)O)cc1 [Compound 134] | > 5.30 | > 6.30 | ≥ 7.70 | 
29 | CC(C)(C)Cc1ccc(C=Cc2cccc(O)c2C(=O)O)cc1 [Compound 135] | > 5.30 | > 6.30 | ≥ 7.70 | 
30 | CC(C)(C)Cc1ccc(C=Cc2ccc(O)cc2C(=O)O)cc1 [Compound 136] | > 5.30 | > 6.30 | ≥ 7.70 | 
31 | CC(C)(C)Cc1ccc(C=Cc2cccc(N)c2C(=O)O)cc1 [Compound 137] | > 5.30 | > 6.30 | ≥ 7.70 | 
32 | CC(C)(C)Cc1ccc(C=Cc2ccc(N)cc2C(=O)O)cc1 [Compound 138] | > 5.30 | > 6.30 | ≥ 7.70 | 
33 | Cc1cccc(C=Cc2ccc(CC(C)(C)C)cc2)c1C(=O)O [Compound 139] | > 5.30 | > 6.30 | ≥ 7.70 | 
34 | Cc1ccc(C=Cc2ccc(CC(C)(C)C)cc2)c(C(=O)O)c1 [Compound 140] | > 5.30 | > 6.30 | ≥ 7.70 | 
35 | CC(C)(C)Cc1ccc(C=Cc2ccccc2C(N)=O)cc1 [Compound 141] | > 5.30 | > 6.30 | ≥ 7.70 | 
36 | CCCCOC(=O)c1cc2ccccc2cc1C=Cc1ccc(CC(C)(C)C)cc1 [Compound 142] | 4.30 to 5.30 | 5.30 to 6.30 | 6.70 to 7.70 | 
37 | CCCCOC(=O)c1ccccc1C=Cc1ccc(CC(C)(C)C)cn1 [Compound 143] | 4.30 to 5.30 | 5.30 to 6.30 | 6.70 to 7.70 | 
38 | CCCCOC(=O)c1ccccc1C=Cc1ccc(CC(C)(C)C)nc1 [Compound 144] | 4.30 to 5.30 | 5.30 to 6.30 | 6.70 to 7.70 | 
39 | CCCCOC(=O)c1ncccc1C=Cc1ccc(CC(C)(C)C)cc1 [Compound 145] | 4.30 to 5.30 | 5.30 to 6.30 | 6.70 to 7.70 | 
40 | CCCCOC(=O)c1cnccc1C=Cc1ccc(CC(C)(C)C)cc1 [Compound 146] |  |  |  | pIC50 [1, 8]: 4.30 to 5.30; pEC50 [2, 9]: 5.30 to 6.30; pIC50 [3, 10]: 6.70 to 7.70
41 | CCCCOC(=O)c1ccncc1C=Cc1ccc(CC(C)(C)C)cc1 [Compound 147] |  |  |  | pIC50 [1, 8]: 4.30 to 5.30; pEC50 [2, 9]: 5.30 to 6.30; pIC50 [3, 10]: 6.70 to 7.70
42 | CCCCOC(=O)c1cccnc1C=Cc1ccc(CC(C)(C)C)cc1 [Compound 148] |  |  |  | pIC50 ([1]; read-out: Test Example 4: activity on inhibiting mitochondrial swelling (IC50) group): 4.30 to 5.30; pEC50 ([2]; HCV replicon cells, read-out: Test Example 3: antiviral activity (EC50) group): 5.30 to 6.30; pIC50 [3, 10]: 6.70 to 7.70
43 | CCCCOC(=O)c1cccc(C(=O)OCCCC)c1C=Cc1ccc(CC(C)(C)C)cc1 [Compound 149] |  |  |  | pIC50 [1, 8]: 4.30 to 5.30; pEC50 [2, 9]: 5.30 to 6.30; pIC50 [3, 10]: 6.70 to 7.70
44 | CC(C)(C)Cc1ccc(C=Cc2c(O)cccc2C(=O)O)cc1 [Compound 150] |  |  |  | pIC50 [1, 8]: > 5.30; pEC50 [2, 9]: > 6.30; pIC50 [3, 10]: ≥ 7.70
45 | CC(C)(C)Cc1ccc(C=Cc2c(N)cccc2C(=O)O)cc1 [Compound 151] |  |  |  | pIC50 [1, 8]: > 5.30; pEC50 [2, 9]: > 6.30; pIC50 [3, 10]: ≥ 7.70
46 | Cc1cccc(C(=O)O)c1C=Cc1ccc(CC(C)(C)C)cc1 [Compound 152] |  |  |  | pIC50 [1, 8]: > 5.30; pEC50 [2, 9]: > 6.30; pIC50 [3, 10]: ≥ 7.70
